pIC50: −log10 of the molar value.
The compounds below were run against Factor D (Homo sapiens (Human), UniProt P00746) (assay: Factor D esterolytic assay (Z-Lys-SBzl substrate, DTNB, 405 nm)). Conditions: Z-Lys-SBzl 1.29 mM, pH 7.5, 10% DMSO, tested a minimum of three times, read-out: Measured Ki (IC50) Value for Compounds: IC50.
Factor D, sequence (P00746 26-253): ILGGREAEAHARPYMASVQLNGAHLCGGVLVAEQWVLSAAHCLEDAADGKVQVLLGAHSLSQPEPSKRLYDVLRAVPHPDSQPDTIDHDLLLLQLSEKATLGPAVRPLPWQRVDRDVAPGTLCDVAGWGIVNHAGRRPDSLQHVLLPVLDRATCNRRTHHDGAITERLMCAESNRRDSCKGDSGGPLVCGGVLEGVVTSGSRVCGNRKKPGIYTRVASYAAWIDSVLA
Assay type: biochemical
Outline: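 Human Factor D ([…]) with 1.29 mM Z-Lys-SBzl in 100 mM HEPES, 500 mM NaCl, pH 7.5, 10% DMSO; substrate added immediately or after room-temperature preincubation. Released thiol reacted with DTNB, rate followed at 405 nm for 600 sec, 690 nm background subtracted. IC50 from percent inhibition versus uninhibited rate, n≥3.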
With `NCc1cccc(-c2cc(COc3ccccc3CC(=O)O)cc3c(C(F)(F)F)coc23)c1F` [Compound 173b, 2-(2-((7-(3-(aminomethyl)-2-fluorophenyl)-3-(trifluoromethyl)benzofuran-5-yl)methoxy)phenyl)acetic acid] the pIC50 was greater than 6.00. `Nc1nccc2ccc(-c3cc(COc4ccccc4CC(=O)O)cc4ccoc34)cc12` [Compound 87c, 2-(2-((7-(1-aminoisoquinolin-7-yl)benzofuran-5-yl)methoxy)phenyl)acetic acid] was tested, and the pIC50 was less than 5.00. With `NCc1ccc(CC(=O)O)c(OCc2cc(-c3cccc(CN)c3F)c3occc3c2)c1` [Compound 456c, 2-(4-(aminomethyl)-2-((7-(3-(aminomethyl)-2-fluorophenyl)benzofuran-5-yl)methoxy)phenyl)acetic acid] the pIC50 was greater than 6.00. Compound `COCc1cc2cc(COc3ccc(F)cc3CC(=O)O)cc(-c3ccnc(CN)c3)c2o1` [Compound 529b, 2-(2-((7-(2-(aminomethyl)pyridin-4-yl)-2-(methoxymethyl)benzofuran-5-yl)methoxy)-5-fluorophenyl)acetic acid] has a pIC50 greater than 6.00. For `N#Cc1ccc(OCc2cc(-c3cccc(CN)c3)c3occc3c2)c(CC(=O)O)c1` [Compound 239c, 2-(2-((7-(3-(aminomethyl)phenyl)benzofuran-5-yl)methoxy)-5-cyanophenyl)acetic acid], the pIC50 was greater than 6.00. `CS(=O)(=O)n1ccc2c(-c3ccnc(CN)c3)cc(COc3ccccc3CC(=O)O)cc21` [Compound 211c, 2-(2-((4-(2-(aminomethyl)pyridin-4-yl)-1-(methylsulfonyl)-1H-indol-6-yl)methoxy)phenyl)acetic acid] showed a pIC50 greater than 6.00. `CC(C)n1ccc2c(-c3cccc(CN)c3)cc(COc3ccccc3CC(=O)O)cc21` [Compound 109g, 2-(2-((4-(3-(aminomethyl)phenyl)-1-isopropyl-1H-indol-6-yl)methoxy)phenyl)acetic acid] was tested, and the pIC50 was greater than 6.00. `NCc1cccc(-c2cc(COc3ccccc3CC(=O)O)cc3cc(CNCc4cccnc4)oc23)c1` [Compound 281c, 2-(2-((7-(3-(aminomethyl)phenyl)-2-(((pyridin-3-ylmethyl)amino)methyl)benzofuran-5-yl)methoxy)phenyl)acetic acid] was tested, and the pIC50 was greater than 6.00. With `Cc1cc2cc(COc3ccccc3CC(=O)O)cc(-c3ccnc(CN)c3)c2o1` [Compound 112c, 2-(2-((7-(2-(aminomethyl)pyridin-4-yl)-2-methylbenzofuran-5-yl)methoxy)phenyl)acetic acid] the pIC50 was greater than 6.00. Compound `NCc1cccc(-c2cc(COc3cc(Br)ccc3CC(=O)O)cc3ccoc23)c1` [Compound 182d, 2-(2-((7-(3-(aminomethyl)phenyl)benzofuran-5-yl)methoxy)-4-bromophenyl)acetic acid] has a pIC50 greater than 6.00. For `NCc1cccc(-c2nc3c(c(C(=O)Nc4ccccc4CC(=O)O)n2)CCC3)c1` [Compound 2f, 2-(2-(2-(3-(aminomethyl)phenyl)-6,7-dihydro-5H-cyclopenta[d]pyrimidine-4-carboxamido)phenyl)acetic acid], the pIC50 was greater than 6.00. In the case of `C[C@@H](N)c1cccc(-c2cc(COc3ccccc3CC(=O)O)cc3ccoc23)c1F` [Compound 65c, (R)-2-(2-((7-(3-(1-aminoethyl)-2-fluorophenyl)benzofuran-5-yl)methoxy)phenyl)acetic acid], the pIC50 was greater than 6.00. `NCc1nccc(-c2cc(COc3ccccc3CC(=O)O)cc3occc23)c1F` [Compound 174c, 2-(2-((4-(2-(aminomethyl)-3-fluoropyridin-4-yl)benzofuran-6-yl)methoxy)phenyl)acetic acid] gave a pIC50 greater than 6.00. `Cc1noc2c(-c3cccc(CN)c3F)cc(COc3ccccc3CC(=O)O)cc12` [Compound 267h, 2-(2-((7-(3-(aminomethyl)-2-fluorophenyl)-3-methylbenzo[d]isoxazol-5-yl)methoxy)phenyl)acetic acid] gave a pIC50 greater than 6.00. In the case of `NCc1cccc(-c2cc(COc3ccccc3CC(=O)O)cc3nn(CC4CC4)cc23)c1F` [Compound 164e, 2-(2-((4-(3-(aminomethyl)-2-fluorophenyl)-2-(cyclopropylmethyl)-2H-indazol-6-yl)methoxy)phenyl)acetic acid], the pIC50 was greater than 6.00. `NCc1cccc(-c2cc(COc3cc(C(N)=O)ccc3CC(=O)O)cc3ccoc23)c1F` [Compound 411e, 2-(2-((7-(3-(aminomethyl)-2-fluorophenyl)benzofuran-5-yl)methoxy)-4-carbamoylphenyl)acetic acid] showed a pIC50 greater than 6.00. `NCc1cccc(-c2cc(COc3ccccc3C(NC(=O)C3CC3)C(=O)O)cc3ccoc23)c1` (stereo not drawn) [Compound 223e, 2-(2-((7-(3-(aminomethyl)phenyl)benzofuran-5-yl)methoxy)phenyl)-2-(cyclopropanecarboxamido)acetic acid] gave a pIC50 greater than 6.00. Work on `CS(=O)(=O)n1ccc2c(-c3cccc(CN)c3)cc(COc3ccccc3CC(=O)O)cc21` [Compound 192e, 2-(2-((4-(3-(aminomethyl)phenyl)-1-(methylsulfonyl)-1H-indol-6-yl)methoxy)phenyl)acetic acid] yielded a pIC50 greater than 6.00. With `NCc1cccc(-c2cc(COc3cc(-c4ccc(F)cc4)ccc3CC(=O)O)cc3ccoc23)c1` [Compound 398c, 2-(3-((7-(3-(aminomethyl)phenyl)benzofuran-5-yl)methoxy)-4′-fluoro-[1,1′-biphenyl]-4-yl)acetic acid] the pIC50 was greater than 6.00. For `NCc1cccc(-c2cc(C(=O)Nc3ccccc3CC(=O)O)cc3ccccc23)c1` [Compound 18f, 2-(2-(4-(3-(aminomethyl)phenyl)-2-naphthamido)phenyl)acetic acid], the pIC50 was greater than 6.00. `CCc1ccc(CC(=O)O)c(OCc2cc(-c3cccc(CN)c3F)c3occc3c2)c1` [Compound 315f, 2-(2-((7-(3-(aminomethyl)-2-fluorophenyl)benzofuran-5-yl)methoxy)-4-ethylphenyl)acetic acid] gave a pIC50 greater than 6.00. Compound `NCc1cccc(-c2cc(COc3cc(F)ccc3CC(=O)O)c(F)c3ccoc23)c1` [Compound 484c, 2-(2-((7-(3-(aminomethyl)phenyl)-4-fluorobenzofuran-5-yl)methoxy)-4-fluorophenyl)acetic acid] has a pIC50 greater than 6.00. For `CCOc1ccc(CC(=O)O)c(OCc2cc(-c3cccc(CN)c3)c3occc3c2)c1` [Compound 265g, 2-(2-((7-(3-(aminomethyl)phenyl)benzofuran-5-yl)methoxy)-4-ethoxyphenyl)acetic acid], the pIC50 was greater than 6.00. Work on `NCc1cccc(-c2cc(CNc3ccccc3CC(=O)O)cc3ccoc23)c1` [Compound 153b, lithium 2-(2-(((7-(3-(aminomethyl)phenyl)benzofuran-5-yl)methyl)amino)phenyl)acetate] yielded a pIC50 greater than 6.00. `NCc1nccc(-c2cc(COc3cc(-c4ccccc4)ccc3CC(=O)O)cc3ccoc23)c1F` [Compound 394c, 2-(3-((7-(2-(aminomethyl)-3-fluoropyridin-4-yl)benzofuran-5-yl)methoxy)-[1,1′-biphenyl]-4-yl)acetic acid] was tested, and the pIC50 was greater than 6.00. For `Cc1ccc(CC(=O)O)c(OCc2cc(-c3cccc(CN)c3F)c3occ(C(F)(F)F)c3c2)c1` [Compound 349b, 2-(2-((7-(3-(aminomethyl)-2-fluorophenyl)-3-(trifluoromethyl)benzofuran-5-yl)methoxy)-4-methylphenyl)acetic acid], the pIC50 was greater than 6.00. `Cc1ccc(S(=O)(=O)n2ccc3c(-c4cccc(CN)c4)cc(COc4ccccc4CC(=O)O)cc32)cc1` [Compound 40e, 2-(2-((4-(3-(aminomethyl)phenyl)-1-tosyl-1H-indol-6-yl)methoxy)phenyl)acetic acid] showed a pIC50 greater than 6.00. For `NCc1cccc(-c2cc(COc3ccccc3CC(=O)O)cc3ccoc23)c1` [Compound 23e, 2-(2-((7-(3-(aminomethyl)phenyl)benzofuran-5-yl)methoxy)phenyl)acetic acid], the pIC50 was greater than 6.00. Compound `Cc1ccc(S(=O)(=O)n2ccc3c(-c4cccc(CN)c4)cc(COc4ccccc4CC(=O)O)nc32)cc1` [Compound 49f, 2-(2-((4-(3-(aminomethyl)phenyl)-1-tosyl-1H-pyrrolo[2,3-b]pyridin-6-yl)methoxy)phenyl)acetic acid] has a pIC50 greater than 6.00. `Cc1ccc(CC(=O)O)c(OCc2cc(-c3ccnc(CN)c3F)c3ccn(C)c3c2)c1` [Compound 366d, 2-(2-((4-(2-(aminomethyl)-3-fluoropyridin-4-yl)-1-methyl-1H-indol-6-yl)methoxy)-4-methylphenyl)acetic acid] was tested, and the pIC50 was greater than 6.00. Compound `NCc1cccc(-c2cc(COc3ccccc3CC(=O)O)cc3sc(Cl)cc23)c1F` [Compound 337b, 2-(2-((4-(3-(aminomethyl)-2-fluorophenyl)-2-chlorobenzo[b]thiophen-6-yl)methoxy)phenyl)acetic acid] has a pIC50 greater than 6.00. With `COCc1cc2cc(COc3cc(C(N)=O)ccc3CC(=O)O)cc(-c3cccc(CN)c3)c2o1` [Compound 309h, 2-(2-((7-(3-(aminomethyl)phenyl)-2-(methoxymethyl)benzofuran-5-yl)methoxy)-4-carbamoylphenyl)acetic acid] the pIC50 was greater than 6.00. Compound `Cc1ccc(CC(=O)O)c(OCc2cc(-c3ccnc(CN)c3)c3occc3c2F)c1` [Compound 346c, 2-(2-((7-(2-(aminomethyl)pyridin-4-yl)-4-fluorobenzofuran-5-yl)methoxy)-4-methylphenyl)acetic acid] has a pIC50 greater than 6.00. Work on `NCc1cccc(-c2cc(COc3cc(CN)ccc3CC(=O)O)cc3ccoc23)c1` [Compound 236d, 2-(4-(aminomethyl)-2-((7-(3-(aminomethyl)phenyl)benzofuran-5-yl)methoxy)phenyl)acetic acid] yielded a pIC50 greater than 6.00. Compound `Cc1cc(CN)cc(-c2cc(COc3ccccc3CC(=O)O)cc3ccoc23)c1` [Compound 89c, 2-(2-((7-(3-(aminomethyl)-5-methylphenyl)benzofuran-5-yl)methoxy)phenyl)acetic acid] has a pIC50 greater than 6.00. With `Cc1ccc(CC(=O)O)c(NC(=O)c2nc(-c3cc(F)cc(CN)c3)nn3cccc23)c1` [Compound 63c, 2-(2-(2-(3-(aminomethyl)-5-fluorophenyl)pyrrolo[2,1-f][1,2,4]triazine-4-carboxamido)-4-methylphenyl)acetic acid] the pIC50 was greater than 6.00.

Source: patent publication US11370774B2, “Substituted benzofuran, benzopyrrole, benzothiophene, and structurally related complement inhibitors” (BioCryst Pharmaceuticals, Inc., priority 2018, dated 2022)
